Here are results for 16 molecules from US4656184A, “2-(N-substituted hydrazone), thiazoles useful as anti-inflammatories” (priority 1982, dated 1987).

Molecules are shown by their SMILES. Like-named read-outs stand apart in the source and are kept apart here. Bounds are passed on as bounds.

One may read the IC50 as the concentration that gives 50% inhibition.

Test [1] addresses T1, 5-lipoxygenase of the peritoneal leukocytes of rabbits (PMNs) (Oryctolagus cuniculus, UniProt G1SNX0).
T1 construct: metabolism of ^14 C-AA in the peritoneal PMNs of rabbits; endogenous in cells; host or cells: rabbit peritoneal polymorphonuclear leukocytes (suspension)
T1 sequence (G1SNX0 1-674): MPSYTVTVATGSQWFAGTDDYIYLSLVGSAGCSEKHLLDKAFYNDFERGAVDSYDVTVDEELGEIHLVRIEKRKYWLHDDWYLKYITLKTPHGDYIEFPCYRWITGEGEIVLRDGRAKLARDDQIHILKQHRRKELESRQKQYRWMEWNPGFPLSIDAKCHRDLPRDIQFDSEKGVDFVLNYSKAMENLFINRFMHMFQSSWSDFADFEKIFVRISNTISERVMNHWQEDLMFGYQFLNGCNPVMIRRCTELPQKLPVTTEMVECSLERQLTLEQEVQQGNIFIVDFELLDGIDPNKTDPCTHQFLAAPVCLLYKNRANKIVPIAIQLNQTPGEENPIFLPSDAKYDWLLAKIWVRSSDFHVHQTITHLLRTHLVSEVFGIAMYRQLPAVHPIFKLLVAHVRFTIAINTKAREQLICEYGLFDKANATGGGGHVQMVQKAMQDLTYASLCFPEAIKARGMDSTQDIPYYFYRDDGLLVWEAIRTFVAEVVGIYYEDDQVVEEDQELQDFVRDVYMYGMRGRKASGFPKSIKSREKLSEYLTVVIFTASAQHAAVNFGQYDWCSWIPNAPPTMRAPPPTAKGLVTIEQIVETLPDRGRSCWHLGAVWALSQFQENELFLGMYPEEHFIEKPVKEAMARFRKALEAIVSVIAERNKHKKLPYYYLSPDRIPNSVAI
The experiment in a line: Inhibition of the 5-lipoxygenase of the peritoneal leukocytes of rabbits (PMNs), metabolism of 14C-arachidonate. The class given is cell-based. Conditions: rabbit peritoneal PMNs, n.i. = no inhibition. The protocol:
1.1. Inhibition of the 5-lipoxygenase of the peritoneal leukocytes of rabbits (PMNs)
(§1) Preparation of a suspension of rabbit PMNs
(§2) The peritoneal leukocytes of rabbits are obtained and prepared according to the technique described by P. Borgeat and B. Samuelson (J. Biol. Chem. 254, n° 8, p. 2643, 1979).
(§3) Metabolism of ^14 C-Arachidonate
(§4) The incubation and extraction methods are those described by J. Y. Vanderhoek & co-workers (J. Biol. Chem. […], 21, 10064, 1980).
(§5) The percent inhibition of the 5-lipoxygenase is determined as a function of the concentration of each compound. The concentration of product that inhibits the metabolism by a factor of 50% (IC50) is inferred from those curves.

In a further test the target is T2, 12-lipoxygenase (Oryctolagus cuniculus, UniProt G1U492).
T2 construct: metabolism of ^14 C-Arachidonate in the blood platelets of rabbits; endogenous in cells; host or cells: washed rabbit blood platelets (from platelet-rich plasma)
T2 sequence (G1U492 1-663): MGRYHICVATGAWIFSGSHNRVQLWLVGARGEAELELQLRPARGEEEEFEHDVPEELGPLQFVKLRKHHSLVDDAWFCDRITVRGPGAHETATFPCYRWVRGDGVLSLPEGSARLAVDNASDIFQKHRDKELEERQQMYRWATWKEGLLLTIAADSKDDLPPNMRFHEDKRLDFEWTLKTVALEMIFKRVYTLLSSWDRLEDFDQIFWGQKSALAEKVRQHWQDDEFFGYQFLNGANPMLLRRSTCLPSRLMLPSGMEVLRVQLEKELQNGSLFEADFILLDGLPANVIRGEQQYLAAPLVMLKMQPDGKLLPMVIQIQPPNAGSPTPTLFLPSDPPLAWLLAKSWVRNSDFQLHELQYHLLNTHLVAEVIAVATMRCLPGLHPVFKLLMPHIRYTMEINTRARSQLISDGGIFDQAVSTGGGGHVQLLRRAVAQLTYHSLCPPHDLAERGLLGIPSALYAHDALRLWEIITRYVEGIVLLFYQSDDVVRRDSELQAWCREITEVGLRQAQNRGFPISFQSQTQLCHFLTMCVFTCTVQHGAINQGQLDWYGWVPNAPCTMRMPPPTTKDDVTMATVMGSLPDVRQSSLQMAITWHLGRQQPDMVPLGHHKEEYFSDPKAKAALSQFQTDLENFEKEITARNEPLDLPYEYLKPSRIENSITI
The experiment in a line: Inhibition of the metabolism of 14C-arachidonate in the blood platelets of rabbits: 12-lipoxygenase route (12-HETE). The class given is cell-based. As to conditions: rabbit blood platelets; for IC50 in the blood platelets, 12 HETE / IC50: n.i. = no inhibition, 12 HETE. The protocol: (§6) 1.2. Inhibition of the metabolism of
(§7) ^14 C-Arachidonate in the blood platelets of rabbits
(§8) Preparation of a platelet-rich plasma (PRP)
(§9) A 12 ml blood sample is taken, by the intracardiac route, on ACD (anticoagulant consisting of an aqueous solution containing 0.27 g citric acid, 0.5 g disodium citrate and 0.02 g glucose per 20 ml water), at a rate of 1 volume ACD per 6 volumes blood. The blood is centrifuged at 200 g for 10 minutes and the supernatant (PRP) is collected. It is again centrifuged at 1500 g for 15 minutes. The blood-platelet sediment is washed with Buffer I (NaCl: 8 g/l, Tris: 1.21 g/l, KCl: 0.2 g/l, Gelatin: 2.5 g/l; the material is heated at 90° C. to dissolve the gelatin, after which are added glucose: 1 g/l, and N,N'-ethyleneglycol bis(β-aminoethyl ether,)tetraacetic acid or EGTA: 0.075 g/l). The suspension is centrifuged at 1500 g for 10 minutes, and the sediment is taken up into Buffer II (NaCl: 8 g/l, Tris: 1.21 g/l, KCl: 0.2 g/l, CaCl2 : 0.145 g/l, MgCl2 0.2 g/l, gelatin: 2.5 g/l; this material is heated to 90° C., after which glucose (1 g/l) is added, and the pH is adjusted to a value of 7.4 with 0.1 N HCl),
as §3
(§10) The blood-platelet suspension (0.4 ml/tube) is pre-incubated at 37° C. for 15 minutes, either with 10 μl DMSO (reference), or with varying concentrations of products to be treated dissolved in 10 μl DMSO.
(§11) The incubation is effected in the presence of ^14 C-Arachidonate (1 μg, 0.2 μCi) distributed within 0.1 ml Buffer II. It is blocked after 15 minutes by means of 50 μl citric acid and 250 μl saturated NaCl.

The test system of the next test is prostanoids. The experiment in a line: Inhibition of the metabolism of 14C-arachidonate in the blood platelets of rabbits: prostanoids route (TxB2, HHT). In kind it is cell-based. Conditions: rabbit blood platelets. The protocol:
as §6, §7, §8, §9, §3, §10, §11

A further test concerns 15 HETE. The test is described as follows: Metabolism of 14C-arachidonate in rabbit peritoneal PMNs: 15 HETE. The class given is cell-based. As to conditions: 15 HETE formation, n.i. = no inhibition. On the procedure:
as §1, §2, §3, §4, §5

A further test has as its system edema of the ear in rats. The experiment in a line: Cutaneous anti-inflammatory activity: inhibition of the edema of the ear in rats following topic administration. In kind it is in vivo. As to conditions: rat ear edema, topical. On the procedure: Cutaneous anti-inflammatory activity determined by the inhibition of the edema of the ear in rats following topic administration. This activity is determined by means of the method according to G. Tonelli and co-workers (Endocrinology, 1965, 77, 625-634). The effect of various concentrations of each compound is determined in at least seven rats. Inflammation is inhibited by a factor of 50% at the following concentrations: […]

Where [2] appears, read: 5 HETE formation, read-out: IC50 in the PMNs, 5 HETE.
The mark [3] stands for this setting: LTB4 formation, read-out: IC50 in the PMNs, LTB4.
Setting [4] is: Oryctolagus cuniculus, Platelet, HHT, read-out: IC50 in the blood platelets, HHT.
The mark [5] stands for this setting: Oryctolagus cuniculus, Platelet, thromboxane B2, read-out: IC50 in the blood platelets, T × B2.
The mark [6] stands for this setting: HHT, read-out: IC50 in the blood platelets, HHT.
The mark [7] stands for this setting: thromboxane B2, read-out: IC50 in the blood platelets, T × B2.

With `NC(=NNc1ccccc1)c1ccccc1` [Example 21], the IC50 stood at 20 µM in test [1] (setting [2]), 10 µM in test [1] (setting [3]), 10 µM in the test on prostanoids (setting [4]) and 10 µM in the test on prostanoids (setting [5]). Moreover, the “IC50 in the blood platelets, 12 HETE” value at 12-lipoxygenase is “n.i”.
Turning to `CC(=NNc1nccs1)c1cccs1` [Example 3d], in the test with 15 HETE, the “IC50 in the PMNs, 15 HETE” value is recorded as “n.i”. Also, the IC50 in test [1] (setting [2]) is below 2 µM; in test [1] (setting [3]) it was 2 µM; on 12-lipoxygenase, 22 µM; in the test on prostanoids (setting [6]), 50 µM; in the test with prostanoids (setting [7]) it was 10 µM.
As for `CC(=NNc1nccs1)c1cccs1` [Example 3a], the IC50 in the test on 15 HETE (Oryctolagus cuniculus) was determined as 40 µM; in test [1] (setting [2]) it was 15 µM; against 12-lipoxygenase, 30 µM; in the test on prostanoids (setting [6]), 21 µM; in the test with prostanoids (setting [7]), 13 µM.
In the case of `c1ccc2c(c1)CCCC2=NNc1nccs1` [Example 7], the IC50 with 15 HETE (Oryctolagus cuniculus) was 2 µM; in test [1] (setting [2]) it was 6 µM; in test [1] (setting [3]), 8 µM; against 12-lipoxygenase, 40 µM; with prostanoids (setting [4]), 16 µM; with prostanoids (setting [5]), 10 µM.
As to `c1ccc2c(c1)CCCC2=NNc1nccs1` [Example 7a], the IC50 in the test on 15 HETE amounted to 2 µM; in test [1] (setting [2]), 5 µM; in the test with prostanoids (setting [6]), 15 µM; in the test on prostanoids (setting [7]), 5 µM. In addition, the “IC50 in the blood platelets, 12 HETE” value against 12-lipoxygenase is “n.i”.
Take `CN1CCN(C(=NNc2ccccc2)c2ccccc2)CC1` [Example 23]: the IC50 (in test [1] (setting [2]); in test [1] (setting [3]); at 12-lipoxygenase; with prostanoids (setting [4]); in the test on prostanoids (setting [5])) was 25 µM in each case.
With `C[C@@H]1C[C@H]2[C@@H]3CCC4=CC(=O)C=C[C@]4(C)[C@@]3(F)[C@@H](O)C[C@]2(C)[C@@]1(O)C(=O)CO` [Dexamethasone], the figures for the “concentration at which inflammation is inhibited by a factor of 50%” value in the test on edema of the ear in rats (at least seven rats) and with edema of the ear in rats (molar value in parentheses) were 1 mg/mL and 2.5 µmol/mL, respectively.
Take `CC(=NNc1nccs1)c1ccco1` [Example 3c]: the IC50 with 15 HETE (Oryctolagus cuniculus) is above 50 µM; in test [1] (setting [2]) it was 10 µM; in test [1] (setting [3]), 2 µM; against 12-lipoxygenase it was 14 µM; with prostanoids (setting [4]) it was above 50 µM; with prostanoids (setting [5]), 10 µM.
In the case of `CCOC(=O)CCCC(C)=NNc1nccs1` [Example 1], the IC50 was above 50 µM with 15 HETE (Oryctolagus cuniculus); below 2 µM in test [1] (setting [2]); below 2 µM in test [1] (setting [3]); above 50 µM at 12-lipoxygenase; above 50 µM in the test on prostanoids (setting [4]); above 50 µM in the test on prostanoids (setting [7]).
In the case of `CC(=NNc1nccs1)c1cccs1` [Example 3], the “IC50 in the PMNs, 15 HETE” value in the test on 15 HETE was “n.i”. In addition, the IC50 was found to be 18 µM in test [1] (setting [2]); 7 µM in test [1] (setting [3]); 3 µM on 12-lipoxygenase; 20 µM in the test on prostanoids (setting [6]); 50 µM in the test with prostanoids (setting [7]).
Turning to `CC(=NNc1nccs1)c1ccccc1N` [Example 15], the IC50 in test [1] (setting [2]) is below 25 µM; in test [1] (setting [3]), below 25 µM; in the test on prostanoids (setting [4]) it was 25 µM; in the test on prostanoids (setting [5]), below 25 µM. In addition, the “IC50 in the blood platelets, 12 HETE” value at 12-lipoxygenase was “n.i”.
As for `C[C@H](Cc1ccc(O)c(O)c1)[C@@H](C)Cc1ccc(O)c(O)c1` [NDGA, Nordihydroguaiaretic acid], the “concentration at which inflammation is inhibited by a factor of 50%” value in the test with edema of the ear in rats (at least seven rats) is 12.5 mg/mL; with edema of the ear in rats (molar value in parentheses), 41 µmol/mL.
Consider `CC(Cn1ccnc1)=NNc1nccs1` [Example 4], for which the IC50 with 15 HETE (Oryctolagus cuniculus) is 2 µM; against 12-lipoxygenase it was above 50 µM; with prostanoids (setting [4]), above 50 µM; in the test with prostanoids (setting [5]), above 50 µM. Moreover, the “IC50 in the PMNs, 5 HETE” value in test [1] (5 HETE formation) was “n.i”. Besides, the “IC50 in the PMNs, LTB4” value in test [1] (LTB4 formation) was “n.i”.
`O=C(O)c1cc(=NNc2nccs2)c2ccccc2o1` [Example 20]: the “IC50 in the PMNs, 5 HETE” value in test [1] (5 HETE formation) is recorded as “n.i”. For the same molecule, in test [1] (LTB4 formation), the “IC50 in the PMNs, LTB4” value is recorded as “n.i”. On 12-lipoxygenase, the “IC50 in the blood platelets, 12 HETE” value is given as “n.i”. The IC50 came out at 20 µM in the test with prostanoids (setting [4]) and 15 µM in the test on prostanoids (setting [5]).
In the case of `CC(=O)Oc1ccccc1C(=O)O` [Aspirin], the figures for the “concentration at which inflammation is inhibited by a factor of 50%” value in the test on edema of the ear in rats (at least seven rats) and in the test on edema of the ear in rats (molar value in parentheses) were 70 mg/mL and 233 µmol/mL, respectively. For the same molecule, the “inhibition of the 12-lipoxygenase route (chromatographic profile, FIG. 3b)” value against 12-lipoxygenase is “does not inhibit the 12-lipoxygenase route”.
In the case of `CCOC(=O)CCCC(C)=NNc1nccs1` [Example 1a], the IC50 is 13 µM in test [1] (setting [3]), 50 µM in the test on prostanoids (setting [6]) and 12 µM in the test with prostanoids (setting [7]). At 12-lipoxygenase, the “IC50 in the blood platelets, 12 HETE” value is “n.i”.
